From article PMC11742080, “Decavanadate Compound Displays In Vitro and In Vivo Antitumor Effect on Melanoma Models” (Bioinorganic Chemistry and Applications, 2025) come the findings set out here.

Values joined by “and” are separate entries in the source; they are usually repeats but may differ in a detail not shown here. Equal entries are not always repeated. A value given as a limit tells only on which side of the number the result lay.

The IC50 is the point on the concentration scale where inhibition reaches its midpoint. The low end stands for greater potency in that assay, the high end for weaker potency in that assay.

Data set [1] has as its system SKMEL28 human melanoma cells. The experiment in a line: MTT cell viability assay, SKMEL28. The format is cell-based. The procedure: (§1) The MTT assay was first described as a sensitive, quantitative, and reliable colorimetric assay to measure the viability, proliferation, and activation of cells. Cell viability was assessed at 24 and 72 h of treatment to evaluate cytotoxicity and the effect on cell proliferation of the decavanadate compound, respectively. The concentrations of the decavanadate compound have been determined by weighing the compound in its crystal form and then solubilizing it in distilled water.
(§2) All cell lines were seeded in 96-well plates (Nunc, Roskilde, Denmark) at a density of 10^4 cells per well and were incubated overnight, before treatment with different concentrations of the decavanadate compound. After 24 or 72 h of treatment, fresh media solution containing MTT at 0.5 mg/mL was added to cells and incubated for 3 h at 37°C. The formed formazan crystals were then dissolved in DMSO, and the absorbance was measured at 560 nm using a BioTek EON Microplate Spectrophotometer (Fisher Scientific). Cell viability was expressed as a percentage of the viable cell number of the untreated cells (control [CTR]).
(§3) The concentration of the decavanadate compound required for 50% growth inhibition (IC50 value) was estimated as resulting in a 50% decrease in absorbance, compared to the CTR.

Data set [2] can be described thus: Stability of the stock solution (activity retained). The format is physicochemical. Conditions: 1 mg/mL stock kept at +4°C, experiments repeated after 2 months. The procedure:
Four cutaneous melanoma cell lines IGR39, IGR37, SKMEL28, and B16-F10 were treated with increasing concentrations of the decavanadate compound (Figure 3). A stock solution was prepared at a concentration of 1 mg/mL and kept at a temperature of +4°C. The dilutions were made just before the treatment. Figures 3(a) and 3(b) show the dose–response effect of Mg2Na2V10O28·20H2O compound on the viability of different melanoma cell lines, after 24 and 72 h of treatments, respectively.

In data set [3] the test system is HaCaT normal human keratinocytes. Nature of the data set: MTT cell viability assay, HaCaT. The class given is cell-based. The procedure:
as §1, §2, §3

Data set [4] has as its system B16-F10 murine melanoma cells. The experiment in a line: MTT cell viability assay, B16-F10. The format is cell-based. Here is the method: as §1, §2, §3
A general note: Formazan colour is commonly taken as a measure of viable cells.

For another data set, the system named is Swiss albino mice. Nature of the data set: In vivo toxicity/safety assessment, 12 days i.p. Conditions: for ALT / AST / Creatinine: plasma. Here is the method:
In order to investigate the safety of the Mg2Na2V10O28·20H2O compound, three doses of 20, 50, and 100 μg were tested on male Swiss albino mice of ∼20 g weight each. Mice were randomly allocated in four groups of eight mice each. These doses correspond to 1, 2.5, and 5 mg/kg, respectively. A stock solution of 7.5 mg/mL (5.5 mM) was first prepared in PBS (1x). Dilutions were done to obtain 3 solutions of 0.2 mg/mL (146 μM), 0.5 mg/mL (366 μM), and 1 mg/mL (732 μM) in PBS, from which a volume of 100 μL was injected to each mouse, corresponding to the three doses. These doses were chosen based on our previous study. Mice of the CTR group received 100 μL of PBS. Decavanadate compound or vehicle was administered daily by intraperitoneal injection for 12 consecutive days in the morning between 09:00 and 10:00 a.m.
Animals were observed individually for general behavior, toxicity symptoms, and mortality during the first 30 min and then daily during the experiment. The body weights were measured at the beginning and at the end of the […]. On Day 12, blood samples were drawn from the facial vein of each mouse, using capillary tubes, containing heparin (as an anticoagulant component), for biochemical parameters studies. Mice were then sacrificed by cervical dislocation, and their organs (liver and kidney) were excised. The organs were then fixed in 10% buffered formalin for histopathological examination.
Plasma samples were obtained by blood centrifugation at 3000 rpm for 10 min and kept at −20°C. The activities of hepatic enzymes, such as aspartate aminotransferase (AST) and alanine aminotransferase (ALT), and creatinine levels were assessed with commercially available diagnostic kits supplied by Biomaghreb Laboratories (Tunisia). Enzymatic activity was expressed in international units per liter (IU/L). Additionally, we focused on measuring the activity of enzymes involved in hepatic metabolism to evaluate the effect of decavanadate accumulation on liver function. Creatinine level was expressed in mg/L.
Liver and kidney organs in formalin were washed and dehydrated using alcohol. Paraffin-embedded sections were cut at 5-6 μm thickness and stained with hematoxylin and eosin for microscopic examination at 20x and 40x magnification.

As for “dimagnesium disodium decavanadate icosahydrate [Mg2Na2V10O28·20H2O]”, the IC50 was 10.8 µM in data set [1] (SKMEL28, 24 h treatment); 4.1 µM in data set [1] (SKMEL28, 72 h treatment); greater than 70.8 µM in data set [3] (24 h treatment, MTT); 8.9 µM in data set [3] (72 h treatment, MTT); 7.3 µM in data set [4] (B16-F10, 24 h treatment); 2.8 µM in data set [4] (B16-F10, 72 h treatment). For the same substance, in data set [2], the “Stability of stock solution” value is given as “the compound is stable”. Besides, the “Effect on viability of normal keratinocytes” value in data set [3] (24 h treatment) is on record as “little effect”. In addition, the “IC50, cell viability” value in data set [3] (72 h treatment, MTT) was 12.7 µg/mL. Besides, the Liver histological analysis result with Swiss albino mice (50 μg (2.5 mg/kg), 12 days) is listed as “necrosis”; in the data set with Swiss albino mice (100 μg (5 mg/kg), 12 days), “lymphohistiocytic inflammatory infiltrate in the portal tract”. Also, in the data set with Swiss albino mice (1 mg/kg i.p. daily, 12 days), the “Biochemical parameters (AST, ALT, creatinine) versus control” value is recorded as “comparable to the negative CTR”. The ALT is 48.75 ± 2.96 IU/L in the data set with Swiss albino mice (2.5 mg/kg i.p. daily, 12 days) and 81.67 ± 5.12^∗∗∗ IU/L with Swiss albino mice (5 mg/kg i.p. daily, 12 days). Further, the AST in the data set with Swiss albino mice (2.5 mg/kg i.p. daily, 12 days) was 32.83 ± 1.09 IU/L; in the data set on Swiss albino mice (5 mg/kg i.p. daily, 12 days), 45.63 ± 1.21^∗∗ IU/L. In addition, the Creatinine in the data set with Swiss albino mice (2.5 mg/kg i.p. daily, 12 days) was 2.45 mg/L and 2.45 ± 0.28^∗ mg/L; with Swiss albino mice (5 mg/kg i.p. daily, 12 days), 2.80 ± 0.312^∗∗ mg/L. For the same substance, the Kidney histology result in the data set with Swiss albino mice (2.5 mg/kg, 12 days) was “no difference compared to those of the CTR group”; in the data set on Swiss albino mice (5 mg/kg, 12 days), “mild interstitial lymphocytic inflammatory infiltrate”. Also, the “Mortality and signs of toxicity (weight loss, behavioral abnormalities)” value in the data set on Swiss albino mice (1, 2.5 or 5 mg/kg, i.p. daily for 12 days, Swiss albino mice) is given as “No mortality or signs of toxicity”.
